In data set [1] the test system is maximal electroshock seizures. Briefly: Maximal electroshock seizure test. Format: in vivo. The settings on record: albino mice, intraperitoneal, 140 minutes after injection of test compound. The text has this:
Effect Against Maximal Electroshock Seizures. […] Given intraperitoneally to albino mice these compounds have afforded complete protection from maximal electroshock seizures for several hours. To test the maximal seizure anticonvulsant properties in albino mice weighing approximately 25 grams, first an electrical current was delivered via cranial electrodes at a voltage strength which induced a typical maximal electroconvulsant seizure in all the mice. Maximal tonic electrochock seizures were induced with 2 to 7 milliamperes being discharged at 18 volts, and at a frequency of 1000 per second. Abolition of the hindlimb tonic extension component of the seizure was defined as protection in this maximal electroshock test (L. S. Goodman et al., Jour. Pharm. Exper. Therap., 108: 168, 1953). The apparatus used was structured so that the current administered was independent of external resistance. There were 10 animals per group, and they were exposed to electroshock seizures at 20, 80 and 140 minutes after injection of the test compounds. The mice received graded doses of the compounds, and the dose protecting 50% of the animals was calculated biometrically.

The next data set is described as follows: Oral LD50 (Table 3). Format: in vivo.
The test system of data set [2] is pentylenetetrazol-induced seizures. Briefly: Pentylenetetrazol (Metrazol) seizure test. The settings on record: pentylenetetrazol 120 mg/kg i.p. 30 minutes after compound. The data set is classed as in vivo. As to the method: Effect Against Pentylenetetrazol (Metrazol) Seizures. […] The pentylenetetrazol (metrazol), 120 mg/kg, was injected intraperitoneally 30 minutes after the oral administration of the respective graded doses of the compounds. Protection in this test was defined as a failure to detect even a single episode of clonic spasms of at least 5 seconds duration during a 30 minute period following the injection of the metrazol (F. M. Berger, 78:277, 1951). […] Exper. Med. Biol., against pentylenetetrazol seizures ([…] al., Epilepsia, 19: 193-408, 1978).

Data set [3] is described as follows: Intraperitoneal LD50 (Table 2). The data set is classed as in vivo.
Data set [4] relates to Bullfrog sciatic nerve trunk (de-sheathed). As to the kind of experiment: Frog sciatic nerve trunk high frequency stimulation. The settings on record: 10 mM. The text has this:
Pirfenidone: Effect on Frog Sciatic Nerve Trunk High Frequency Stimulation. Bullfrog sciatic nerve trunk (de-sheathed) was stimulated with trains of pulses at 200 Hertz in order to see if pirfenidone affected the nerve's ability to conduct high frequency impulses. […] Drugs that cause “use-dependent” block (high frequency failure) are generally regarded as potential anti-epileptic drugs.

Data set [5] concerns cat soleus muscle nerve preparation. Briefly: Cat soleus muscle nerve preparation, neuromuscular function. The data set is classed as in vivo. The settings on record: for Single impulse transmission: cat soleus muscle nerve preparation. The text has this: Pirfenidone: Effect on Neuromuscular Function of the Cat Soleus Muscle Nerve Preparation. […] The action resembles that of phenytoin (J. A. Wada, Arch. Neurol., 34: 389–395, 1977).

Data set [6] can be described thus: Plasma concentration after oral dosing in man. The data set is classed as in vivo. As to the method: In laboratory animals or in man, pirfenidone is well absorbed after oral administration. Plasma pirfenidone concentrations in man peak 1 to 4 hours after dosing. Metabolically, first order kinetics prevail over a daily dose range of 1200 to 3600 milligrams of pirfenidone in divided dosage (t.i.d.). Pirfenidone is cleared primarily by hepatic metabolism (S. Giri et al., Amer. Thoracic Soc. International Conf., Apr. 24-29, 1998) mainly hydroxylation and conjugation, and excreted primarily in the urine. […] The highly rapid and efficient oral bioavailability of pirfenidone in humans contrasts with that of oral phenytoin. In man, absorption of phenytoin after oral ingestion is slow, often variable and can be incomplete so that peak or effective concentrations in plasma and tissues may be delayed for 3 or more hours (E. Perucca and […], “Handbook of Exper. Pharmacol.,” Vol. 74: 831-855, 1985, Springer-Verlag, Berlin.)

For the next data set, the system named is nerve after-discharge. Briefly: After-discharge on electrical nerve stimulation (neuropharmacological tests in cat and frog). The settings on record: cat and frog demonstrations. The text has this:
However, the molecular mechanism of the anticonvulsant action within neuronal cells remains unknown.

The conditions of data set [7]: man; cited from earlier work.
The test system of data set [8] is pentylenetetrazol-induced seizures. The settings on record: literature (Krall et al.); cited from earlier work.

In the case of `O=c1ccccn1-c1ccccc1` [1-phenyl-2-(1H)-pyridone, reference compound], in data set [1], the “I.P. ED50 (dose protecting 50% of mice against maximal electroshock seizures)” value is “No Activity”. For the same molecule, the “ORAL LD50” value in the data set “Oral LD50 (Table 3)” is 540 ± 124 mg/kg. Moreover, the “ORAL ED50 (dose protecting 50% of mice against pentylenetetrazol-induced seizures)” value in data set [2] is “No Activity”. In addition, in data set [3], the “I.P. LD50” value is above 500 mg/kg.
Turning to `Cc1cccn(-c2ccccc2)c1=O` [3-methyl-1-phenyl-2-(1H)-pyridone], the “I.P. ED50 (dose protecting 50% of mice against maximal electroshock seizures)” value in data set [1] is “No Activity”. Besides, in the data set “Oral LD50 (Table 3)”, the “ORAL LD50” value was 650 ± 110 mg/kg. Moreover, the “ORAL ED50 (dose protecting 50% of mice against pentylenetetrazol-induced seizures)” value in data set [2] was “No Activity”. Besides, in data set [3], the “I.P. LD50” value was above 500 mg/kg.
Turning to `CCc1ccc(=O)n(-c2ccccc2)c1` [5-ethyl-1-phenyl-2-(1H)-pyridone], the “I.P. ED50 (dose protecting 50% of mice against maximal electroshock seizures)” value in data set [1] is 60 ± 10 mg/kg. The “ORAL LD50” value in the data set “Oral LD50 (Table 3)” was determined as 425 ± 48 mg/kg. The “ORAL ED50 (dose protecting 50% of mice against pentylenetetrazol-induced seizures)” value in [2] was 285 ± 29 mg/kg. Also, the “I.P. LD50” value in [3] was 500 ± 61 mg/kg.
As to `Cc1ccc(=O)n(-c2ccccc2)c1` [5-methyl-1-phenyl-2-(1H)-pyridone], in [4], the “Conduction of high frequency impulses (200 Hertz pulse trains)” value is on record as “caused definite high frequency failure” and the “Local anesthesia in the nerve” value was “did not cause local anesthesia”. Moreover, the “I.P. ED50 (dose protecting 50% of mice against maximal electroshock seizures)” value in data set [1] came out at 85 ± 11 mg/kg. In addition, in the data set “Oral LD50 (Table 3)”, the “ORAL LD50” value stood at 610 ± 34 mg/kg. For the same molecule, in [5] (50 mg/kg intravenously), the “Post-tetanic potentiation (PTP)” value is recorded as “suppresses the post-tetanic potentiation”. In addition, the Single impulse transmission entry in data set [5] was “Neither pirfenidone nor phenytoin impair”. Also, in [2], the “ORAL ED50 (dose protecting 50% of mice against pentylenetetrazol-induced seizures)” value stood at 325 ± 41 mg/kg. Also, in data set [6], the “Time of peak plasma concentration after dosing” value lay in the range of 1 to 4 h. The “Block of the classical after-discharge when a nerve is electronically stimulated” value in the data set on nerve after-discharge was “completely block”. In data set [3], the “I.P. LD50” value was found to be 600 ± 43 mg/kg.
With `O=C1NC(=O)C(c2ccccc2)(c2ccccc2)N1` [phenytoin (Dilantin), phenytoin, reference compound], the “I.P. ED50 (dose protecting 50% of mice against maximal electroshock seizures)” value in [1] came out at 50 ± 15 mg/kg. Further, the “ORAL LD50” value in “Oral LD50 (Table 3)” stood at 490 ± 35 mg/kg. The “Delay of peak or effective concentrations in plasma and tissues after oral ingestion” value in data set [7] is at least 3 h. Also, the Single impulse transmission entry in [5] was “Neither pirfenidone nor phenytoin impair”. Besides, the “ORAL ED50 (dose protecting 50% of mice against pentylenetetrazol-induced seizures)” value in [2] was “No Activity”. Also, the “Activity against pentylenetetrazol seizures” value in [8] was “inactive”. In addition, the “Block of the classical after-discharge when a nerve is electronically stimulated” value in the data set on nerve after-discharge is recorded as “completely block”. Further, the “I.P. LD50” value in data set [3] is 200 ± 45 mg/kg.

These data come from patent publication US6956044B1, “Compositions and methods for treatment of epilepsy” (priority 2000, dated 2005).
